The values that follow come from patent publication US8063095B2, “IAP BIR domain binding compounds” (Pharmascience Inc., priority 2005, dated 2011).

Assay [1] deals with T1, XIAP L-Bir2-Bir3 (GST-XIAP Linker Bir2Bir3RING fusion protein) (Homo sapiens, UniProt P98170).
T1 construct: made in house; host or cells: E. coli DH5-alpha
As to the kind of experiment: Caspase de-repression assay using cellular extracts (apoptosome), L-Bir2-Bir3 XIAP. The assay is classed as biochemical. To be noted: 293 cell S100 extract; effective concentration to achieve 50% of activation. The protocol: GST-linker BIR2BIR3Ring: XIAP coding sequence from amino acids 93-497 cloned into PGex4T1 via BamH1 and XhoI. Amino acids 93-497 were amplified from full length XIAP in pGex4t3, using the primers: […] and GCTGCATGTGTGTCAGAGG, using standard PCR conditions. The PCR fragment was TA cloned into pCR-2.1 (invitrogen). Linker BIR2BIR3Ring was subcloned into pGex4T1 by BamHI/XhoI digestion. The plasmid was transformed into E. coli DH5α for use in protein expression and purification. […]
100 ug of 293 cell S100 extract and 0.25 uM-2 uM of GST-XIAP fusion protein (XIAP-Bir3RING, XIAP-Linker Bir2Bir3RING, or full-length XIAP) were co-incubated with serial dilutions of compound (40 uM-5 pM). Caspases present in the extracts were activated by adding 1 mM dATP, 0.1 mM ALLN, 133 ug Cytochrome C (final concentrations), and incubating at 37° C. for 25 minutes. All reactions and dilutions used S100 buffer (50 mM Pipes pH 7.0, 50 mM KCl, 0.5 mM EGTA pH 8.0, 2 mM MgCl2 supplemented with 1/1000 dilutions of 2 mg/ml Cytochalisin B, 2 mg/ml Chymotstatin, Leupeptin, Pepstatin, Antipain, 0.1M PMSF, 1M DTT). Final reaction volume was 30 ul. Caspase-3 activity was measured by overlaying 30 ul of a 0.4 mM DEVD-AMC solution. released AMC cleavage was measured in a TECAN spectrophotometer at 360 nm excitation and 444 nm emission, on a kinetic cycle of 1 hour with readings taken every 5 minutes. Caspase activity was calculated as Vo of AMC fluorescence/sec. Caspase de-repression by our compounds was compared to fully activated extract and activated extract repressed by the presence of XIAP fusion protein.

Assay [2] addresses T2, XIAP bir3 domain (GST-XIAP BIR3RING) (Homo sapiens, UniProt P98170).
T2 construct: made in house; host or cells: E. coli DH5-alpha
Description: Fluorescence polarization-based competition assay, XIAP. The assay is classed as binding. To be noted: Ki calculated from displacement of fluorescent probe; read-out: Fluorescent polarization (FP) assay Xiap. The protocol: GST-XIAP BIR3RING: XIAP coding sequence amino acids 246-497 cloned into PGEX2T1 via BamH1 and AVA I. The plasmid was transformed into E. coli DH5a for use in protein expression and purification.
(§1) A fluorescent peptide probe, Fmoc-Ala-Val-Pro-Phe-Tyr(t-Bu)-Leu-Pro-[…]-Gly-OH was prepared using standard Fmoc chemistry on 2-chlorotrityl chloride resin (Int. J. Pept. Prot. Res. 38:555-561, 1991). Cleavage from the resin was performed using 20% acetic acid in dichloromehane (DCM), which left the side chain still blocked. The C-terminal protected carboxylic acid was coupled to 4′-(aminomethy)fluorescein (Molecular Probes, A-1351; Eugene, Oreg.) using excess diisopropylcarbodiimide (DIC) in dimethylformamide (DMF) at room temperature and was purified by silica gel chromatography (10% methanol in DCM). The N-terminal Fmoc protecting group was removed using piperidine (20%) in DMF, and purified by silica gel chromatography (20% methanol in DCM, 0.5% HOAc). Finally, the t-butyl side chain protective groups were removed using 95% trifluoroacetic acid containing 2.5% water and 2.5% triisopropyl silane.
(§2) For all assays, the fluorescence and fluorescence-polarization was evaluated using a Tecan Polarion instrument with the excitation filter set at 485 nm and the emission filter set at 535 nm. For each assay, the concentration of the target protein was first establish by titration of the selected protein in order to produce a linear dose-response signal when incubated alone in the presence of the fluorescent probe. Upon establishing these conditions, the compounds potency (IC50) and selectivity, was assessed in the presence of a fix defined amount of target protein and fluorescent probe and a 10 point serial dilution of the selected compounds. For each IC50 curve, the assays were run as followed: 25 ul/well of diluted compound in 50 mM MES buffer pH 6.5 were added into a black 96 well plate then 25 ul/well of bovine serum albumin (BSA) at 0.5 mg/ml in 50 mM MES pH 6.5. Auto-fluorescence for each compound was first assessed by performing a reading of the compound/BSA solution alone. Then 25 ul of the fluorescein probe diluted into 50 mM MES containing 0.05 mg/ml BSA were added and a reading to detect quenching of fluorescein signal done. Finally 25 ul/well of the target or control protein (GST-BIRs) diluted at the appropriate concentration in 50 mM MES containing 0.05 mg/ml BSA were added and the fluorescence polarization evaluated.
(§3) For each assay the relative polarization-fluorescence units were plotted against the final concentrations of compound and the IC50 calculated using the Grad pad prism software and/or Cambridge soft. The ki value were derived from the calculated IC50 value as described above and according to the equation described in Nikolovska-Coleska, Z. (2004) Anal Biochem 332, 261-273.

Assay [3] relates to MDA-MB-231 (breast) cancer cells. As to the kind of experiment: Cell viability (MTT) assay, MDA cells. The note with it: Homo sapiens, MTT based assay. The protocol: (§4) MDA-MD-231 (breast) and SKOV-3 (ovarian) cancer cells were cultured in RPMI1640 media supplemented with 10% FBS and 100 units/mL of Penicillin and Steptomycin.
(§5) Viability assays were done on a number of cells including MDA-MB-231, SKOV-3, H460, PC3, HCT-116, and SW480 cells. Cells were seeded in 96 well plates at a respective density of 5000 and 2000 cells per well and incubated at 37° C. in presence of 5% CO2 for 24 hours. Selected compounds were diluted into the media at various concentration ranging from 0.01 uM up to 100 uM. Diluted compounds were added onto the MDA-MB-231 cells. For the MDA-MB-231 SKOV3, H460, PC3, HCT-116, and SW480 cells, the compounds were added either alone or in presence of 1-3 ng/ml of TRAIL. After 72 hours cellular viability was evaluated by MTT based assays.
A general note: Tetrazolium assays rely on reduction of a dye to a coloured formazan, in cell work by metabolically active cells.

Assay [4] concerns the target T3, cIAP-2 bir3 domain (GST-HIAP1(cIAP-2) BIR3) (Homo sapiens, UniProt Q13489).
T3 construct: made in house; host or cells: E. coli DH5-alpha
As to the kind of experiment: Fluorescence polarization-based competition assay, cIAP-2. The note with it: Ki calculated from displacement of fluorescent probe; read-out: Fluorescent polarization (FP) assay cIAP-2. The assay is classed as binding. The protocol:
GST-HIAP1(cIAP-2) BIR3: HIAP1 coding sequence from amino acids 236-349, cloned into PGex4T3 via BamH1 and XhoI. The plasmid was transformed into E. coli DH5α for use in protein expression and purification.
as §1, §2, §3

Assay [5] has as its target T4, cIAP-1 bir3 domain (GST-HIAP2 (cIAP-1) BIR3) (Homo sapiens, UniProt Q13490).
T4 construct: made in house; host or cells: E. coli DH5-alpha
As to the kind of experiment: Fluorescence polarization-based competition assay, cIAP-1. The assay is classed as binding. The note with it: Ki calculated from displacement of fluorescent probe; read-out: Fluorescent polarization (FP) assay cIAP-1. The method, then:
GST-HIAP2 (cIAP-1) BIR3: HIAP2 coding sequence from amino acids 251-363 cloned into PGex4T3 via BamH1 and XhoI. The plasmid was transformed into E. coli DH5α for use in protein expression and purification.
as §1, §2, §3

Assay [6] relates to SKOV-3 (ovarian) cancer cells. Description: Cell viability (MTT) assay, SKOV3 cells. To be noted: 72 hours, MTT based assay; compounds added either alone or in presence of 1-3 ng/ml of TRAIL. The protocol:
as §4, §5

T1 sequence (P98170 93-497): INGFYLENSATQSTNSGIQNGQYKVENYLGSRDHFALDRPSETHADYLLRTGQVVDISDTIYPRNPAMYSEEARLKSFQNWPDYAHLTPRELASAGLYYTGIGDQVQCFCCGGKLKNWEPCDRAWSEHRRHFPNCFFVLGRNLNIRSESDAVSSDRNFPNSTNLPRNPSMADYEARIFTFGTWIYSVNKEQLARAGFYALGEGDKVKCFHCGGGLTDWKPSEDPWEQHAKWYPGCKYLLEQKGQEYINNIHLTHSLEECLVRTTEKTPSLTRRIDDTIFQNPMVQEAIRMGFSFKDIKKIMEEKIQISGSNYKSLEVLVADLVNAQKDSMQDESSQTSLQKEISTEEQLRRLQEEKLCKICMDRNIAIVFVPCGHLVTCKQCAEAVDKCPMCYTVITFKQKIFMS
T3 sequence (Q13489 236-349): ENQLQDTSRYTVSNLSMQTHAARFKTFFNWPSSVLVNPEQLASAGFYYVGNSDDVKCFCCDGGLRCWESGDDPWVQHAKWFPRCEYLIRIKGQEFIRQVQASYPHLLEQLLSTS
T4 sequence (Q13490 251-363): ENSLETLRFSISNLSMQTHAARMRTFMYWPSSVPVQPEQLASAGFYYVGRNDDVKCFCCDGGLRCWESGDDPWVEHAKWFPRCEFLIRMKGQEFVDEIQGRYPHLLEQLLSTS
T2 sequence (P98170 246-497): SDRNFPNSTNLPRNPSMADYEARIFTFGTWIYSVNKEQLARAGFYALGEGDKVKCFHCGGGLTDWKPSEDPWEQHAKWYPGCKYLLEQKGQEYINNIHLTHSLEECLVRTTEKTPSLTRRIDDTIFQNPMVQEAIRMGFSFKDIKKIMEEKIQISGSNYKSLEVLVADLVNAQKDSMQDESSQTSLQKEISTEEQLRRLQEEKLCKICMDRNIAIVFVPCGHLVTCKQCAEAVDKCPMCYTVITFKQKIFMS

Consider `CN[C@@H](C)C(=O)N[C@H](C(=O)N1CCC[C@H]1CN(CCc1ccccc1)S(=O)(=O)c1ccccc1)[C@@H](C)OCC#CC#CCO[C@H](C)[C@H](NC(=O)[C@H](C)NC)C(=O)N1CCC[C@H]1CN(CCc1ccccc1)S(=O)(=O)c1ccccc1` [Compound 4], for which the IC50 (commonly the concentration that gives 50% inhibition) in assay [1] is at most 500 nM. Also, the Ki in assay [2] is at most 5 nM. The EC50 – broadly, the concentration that produces a half-maximal response – in assay [3] (MDA-MB-231, 72 hours) was below 100 nM.
`CN[C@@H](C)C(=O)N[C@@H](COC(=O)c1ccc(C(=O)OC[C@H](NC(=O)[C@H](C)NC)C(=O)N2CCC[C@H]2CN(CCc2ccccc2)C(=O)c2ccccc2)cc1)C(=O)N1CCC[C@H]1CN(CCc1ccccc1)C(=O)c1ccccc1` [Compound 14]: in assay [2], the Ki is at most 100 nM. This compound also yielded an EC50 in assay [3] (MDA-MB-231, 72 h) below 1000 nM.
Take `CN[C@@H](C)C(=O)N[C@@H](COCc1ccc(COC[C@H](NC(=O)[C@H](C)NC)C(=O)N2CCC[C@H]2CN(CCc2ccccc2)C(=O)C(F)(F)F)cc1)C(=O)N1CCC[C@H]1CN(CCc1ccccc1)C(=O)C(F)(F)F` [Compound 11]: the IC50 in assay [1] is at least 1000 nM. The Ki in assay [4] is at least 100 nM. In addition, the EC50 in assay [3] (MDA-MB-231, 72 h) was below 100 nM.
Consider `CN[C@@H](C)C(=O)N[C@H](C(=O)N1CCC[C@H]1CN(CCc1ccccc1)C(=O)[C@H](N)Cc1ccc(OC)cc1)[C@@H](C)OCC#CC#CCO[C@H](C)[C@H](NC(=O)[C@H](C)NC)C(=O)N1CCC[C@H]1CN(CCc1ccccc1)C(=O)[C@H](N)Cc1ccc(OC)cc1` [Compound 2], for which, in assay [1], the IC50 is at most 100 nM. For the same compound, the figures for the Ki in assay [2], in assay [5] and in assay [4] were at most 100 nM, at most 100 nM and at least 100 nM, respectively. Also, the EC50 in assay [3] (MDA-MB-231, 72 hours) was below 100 nM.
In assay [1], `CN[C@@H](C)C(=O)N[C@H](C(=O)N1CCC[C@H]1CN(CCc1ccccc1)C(=O)c1ccccc1)[C@@H](C)OCC#CC#CCO[C@H](C)[C@H](NC(=O)[C@H](C)NC)C(=O)N1CCC[C@H]1CN(CCc1ccccc1)C(=O)c1ccccc1` [Compound 3] gave an IC50 of at most 500 nM. The Ki is at most 100 nM in assay [2], at most 100 nM in assay [5] and at most 5 nM in assay [4]. The EC50 in assay [3] (MDA-MB-231, 72 h) is below 100 nM.
In the case of `CN[C@@H](C)C(=O)N[C@@H](COC(=O)CCCCCC(=O)OC[C@H](NC(=O)[C@H](C)NC)C(=O)N1CCC[C@H]1CN(CCc1ccccc1)C(=O)c1ccccc1)C(=O)N1CCC[C@H]1CN(CCc1ccccc1)C(=O)c1ccccc1` [Compound 13], the Ki in assay [2] was at most 100 nM. This compound had an EC50 in assay [3] (MDA-MB-231, 72 h) below 1000 nM.
Regarding `CN[C@@H](C)C(=O)N[C@H](C(=O)N1CCC[C@H]1CN(CCc1ccccc1)C(=O)C(F)(F)F)[C@@H](C)OCC#CC#CCO[C@H](C)[C@H](NC(=O)[C@H](C)NC)C(=O)N1CCC[C@H]1CN(CCc1ccccc1)C(=O)C(F)(F)F` [Compound 1], in assay [1], the IC50 is at most 100 nM. Besides, the Ki was at most 100 nM in assay [2], at least 100 nM in assay [5] and at least 100 nM in assay [4]. Further, the EC50 in assay [3] (MDA-MB-231, 72 h) is below 100 nM; in assay [6], below 100 nM.
With `CN[C@@H](C)C(=O)N[C@H](C(=O)N1CCC[C@H]1CN(CCc1ccccc1)S(C)(=O)=O)[C@@H](C)OCC#CC#CCO[C@H](C)[C@H](NC(=O)[C@H](C)NC)C(=O)N1CCC[C@H]1CN(CCc1ccccc1)S(C)(=O)=O` [Compound 8], in assay [1], the IC50 is at most 500 nM. In addition, the Ki in assay [2] is at most 5 nM. Moreover, the concentration giving a half-maximal response (EC50) in assay [3] (MDA-MB-231, 72 h) was below 100 nM.
Turning to `CN[C@@H](C)C(=O)N[C@@H](COCc1ccc(-c2ccc(COC[C@H](NC(=O)[C@H](C)NC)C(=O)N3CCC[C@H]3CN(CCc3ccccc3)C(=O)C(F)(F)F)cc2)cc1)C(=O)N1CCC[C@H]1CN(CCc1ccccc1)C(=O)C(F)(F)F` [Compound 12], in assay [1], the IC50 was at least 1000 nM. The Ki in assay [2] is at least 100 nM; in assay [5], at most 100 nM; in assay [4], at most 5 nM. The compound also registered an EC50 in assay [3] (MDA-MB-231, 72 hours) below 100 nM.
In assay [1], `CN[C@@H](C)C(=O)N[C@H](C(=O)N1CCC[C@H]1CN(CCc1ccccc1)S(=O)(=O)Cc1ccccc1)[C@@H](C)OCC#CC#CCO[C@H](C)[C@H](NC(=O)[C@H](C)NC)C(=O)N1CCC[C@H]1CN(CCc1ccccc1)S(=O)(=O)Cc1ccccc1` [Compound 6] came in with an IC50 of at most 500 nM. The Ki in assay [2] is at most 5 nM. Further, in assay [3] (MDA-MB-231, 72 hours), the EC50 is below 100 nM.
The like results for `CN[C@@H](C)C(=O)N[C@H](C(=O)N1CCC[C@H]1CN(CCc1ccccc1)C(=O)OCc1ccccc1)[C@@H](C)OCC#CC#CCO[C@H](C)[C@H](NC(=O)[C@H](C)NC)C(=O)N1CCC[C@H]1CN(CCc1ccccc1)C(=O)OCc1ccccc1` [Compound 7] were, in that order, at most 500 nM, at most 100 nM and below 100 nM.
Regarding `CN[C@@H](C)C(=O)N[C@@H](CCCCNC(=O)C(=O)NCCCC[C@H](NC(=O)[C@H](C)NC)C(=O)N1CCC[C@H]1CN(CCc1ccccc1)C(=O)C(F)(F)F)C(=O)N1CCC[C@H]1CN(CCc1ccccc1)C(=O)C(F)(F)F` [Compound 46], the EC50 in assay [6] was below 100 nM.
